In patent US8685941B2, “Drug composition cytotoxic for pancreatic cancer cells” (University of Central Florida Research Foundation, Inc., priority 2008, dated 2014):
Where two headings read alike, the source gives them in different places.

Assays:
[1] = tested on: Panc-1 and Colo-357 cells; test: CyQuant cell proliferation/viability assay, statements for both lines
From the text: (§1) Cell Proliferation Viability Assay and Annexin V Binding and Flow Cytometry.
(§2) Viable cells were counted by trypan blue exclusion/phase contrast microscopy or assessed by CyQuant cell viability assay, according to manufacturer's (Invitrogen) instructions, or cells were processed for Annexin V binding (BD Biosciences) with flow cytometry for apoptosis.

Stat3 [2] = test: Stat3 DNA-binding activity, EMSA of nuclear extracts, Panc-1; type: cell-based, human; settings: for constitutive Stat3 DNA-binding activity: Panc-1, 24 h treatment; for constitutively-active Stat3 DNA-binding activity: first 30 min to 1 h of treatment
Description: (§3) Nuclear Extract Preparation and Gel Shift Assays.
(§4) Nuclear extract preparation and DNA-binding with electrophoretic mobility shift assay (EMSA) were carried out, as previously reported (14, 15). The ^32P-labeled oligonucleotide probes used were hSIE (high affinity sis-inducible element from the c-fos gene, m67 variant), 5′-[…]; (SEQ ID NO:1) that binds Stat1 and Stat3 (Wagner et al., 1990) and the MGFe (mammary gland factor element from the bovine β-casein gene promoter, 5′-[…]; (SEQ ID NO:2) that binds Stat1 and Stat5 (Gouilleux et al., 1995; Seidel et al., 1995).

Panc-1 or Colo-357 cells = test: Viable cell count by trypan blue exclusion/phase-contrast microscopy; type: cell-based, human
From the text: as §1, §2

Stat3 [3] = test: Stat3 DNA-binding activity, EMSA of nuclear extracts, Colo-357; type: cell-based, human
Description: as §3, §4

pErk1/pErk2MAPK and pAkt = test: Immunoblotting for pErk1/pErk2MAPK and pAkt (control studies); type: cell-based, human; settings: Panc-1 and Colo-357 cells (data not shown)
Description: (§5) SDS-PAGE/Western Blot Analysis.
(§6) Western blotting analysis was performed as previously described (15, 18). Primary antibodies used were anti-Stat3 (C20) (Santa Cruz, Santa Cruz, Calif.), anti-pY845EGFR (Upstate Biotech, Millipore, Billerica, Mass.), and antibodies against pY705Stat3, Stat3, pY1068EGFR, pY1086EGFR, pY1173EGFR, EGFR, pY416Src, Src, c-Myc, and β-Actin from Cell Signaling (Danvers, Mass.). Inhibitors

[4] = tested on: Panc-1 and Colo-357 cells; test: Colony survival assay; type: cell-based, human; settings: 500 cells per dish, treated once for 48 h
Description: Single-cell suspension of Panc-1 and Colo-357 cells were seeded in 6-cm dishes (500 cells per well) and assayed as previously reported (19), treated the next day with inhibitors for 48 h, and allowed to grow until large colonies were visible. Colonies were stained with crystal violet for 4 h and counted under phase-contrast microscope.

Colo-357 cells = test: CyQuant cell proliferation/viability assay, Colo-357; type: cell-based; settings: Homo sapiens
From the text: as §1, §2

Panc-1 cells = test: CyQuant cell proliferation/viability assay, Panc-1; type: cell-based; settings: Homo sapiens
From the text: as §1, §2

Src = biological target: T1, Src (Homo sapiens, UniProt P12931); test: Immunoblotting of whole-cell lysates for pY416Src; type: cell-based; settings: immunoblot, 1 h and 24 h treatment or siRNA knockdown
T1 construct: endogenous in cells; host or cells: Panc-1 and Colo-357 human pancreatic cancer cells
T1 sequence (P12931 whole entry): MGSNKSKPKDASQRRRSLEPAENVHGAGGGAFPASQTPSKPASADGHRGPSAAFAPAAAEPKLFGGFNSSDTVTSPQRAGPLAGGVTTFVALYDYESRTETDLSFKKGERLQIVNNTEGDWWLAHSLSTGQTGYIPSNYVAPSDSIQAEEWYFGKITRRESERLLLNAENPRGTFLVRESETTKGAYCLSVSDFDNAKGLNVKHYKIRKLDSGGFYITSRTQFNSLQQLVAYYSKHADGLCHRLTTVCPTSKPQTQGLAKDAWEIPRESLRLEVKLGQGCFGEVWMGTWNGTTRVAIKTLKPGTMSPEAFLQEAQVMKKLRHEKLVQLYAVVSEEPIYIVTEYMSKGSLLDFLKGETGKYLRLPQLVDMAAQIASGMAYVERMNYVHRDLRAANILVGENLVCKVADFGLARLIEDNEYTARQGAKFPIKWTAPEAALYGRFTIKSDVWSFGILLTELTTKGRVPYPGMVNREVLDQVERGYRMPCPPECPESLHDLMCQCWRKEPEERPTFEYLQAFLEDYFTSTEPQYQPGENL
Description: as §5, §6
Small-Interfering RNA (siRNA) Transfection.
siRNA sequences for EGFR and Src were ordered from Dharmacon RNAi Technologies, Thermo Scientific (Lafayette, Colo.).

[5] = 48-h treatment with each inhibitor alone
[6] = 1 μM ZD, 100 nM Das, or 50 μM S3I-201 alone, 24 h
[7] = COLO357, inhibitor alone, 48-h treatment, read-out: IC50 against Colo-357 viability
[8] = PANC-1, inhibitor alone, 48-h treatment, read-out: IC50 against Panc-1 viability

Row | constitutive Stat3 DNA-binding activity (Stat3 [2]) | constitutively-active Stat3 DNA-binding activity (Stat3 [2]) | Stat3 DNA-binding activity (Stat3 [3]) | IC50 (Colo-357 cells; [7]) | IC50 (Panc-1 cells; [8]) | SMILES | viable cell numbers (fluorescent unit, FU) [1, 5] | cell viability (viable cell count) (Panc-1 or Colo-357 cells; [6]) | cell viability (viable cell count) (Panc-1 or Colo-357 cells; treatment for 48 to 96 h) | pErk1/pErk2MAPK and pAkt levels (pErk1/pErk2MAPK and pAkt) | colony numbers [4] | also measured
1 | moderately inhibited | early repression |  |  |  | CC(C)(C)c1cc(/C=C(\C#N)C(N)=S)cc(C(C)(C)C)c1O [AG879] |  |  |  |  |  | 
2 | rebounded | early repression |  |  |  | C=CC(=O)Nc1cc2c(Nc3cccc(Br)c3)ncnc2cc1OCCCN1CCOCC1 [PD169] |  |  |  |  |  | pY416Src level (Src activity) (Src): no detectable changes

Second part, the compound before the results:

Row | SMILES | constitutive Stat3 DNA-binding activity (Stat3 [2]) | constitutively-active Stat3 DNA-binding activity (Stat3 [2]) | Stat3 DNA-binding activity (Stat3 [3]) | IC50 (Colo-357 cells; [7]) | IC50 (Panc-1 cells; [8]) | viable cell numbers (fluorescent unit, FU) [1, 5] | cell viability (viable cell count) (Panc-1 or Colo-357 cells; [6]) | cell viability (viable cell count) (Panc-1 or Colo-357 cells; treatment for 48 to 96 h) | pErk1/pErk2MAPK and pAkt levels (pErk1/pErk2MAPK and pAkt) | colony numbers [4] | also measured
3 | COc1cc2ncnc(Nc3ccc(F)c(Cl)c3)c2cc1OCCCN1CCOCC1 [ZD, Gefitinib] | rebounded | early repression | inhibited |  |  | decreased viable cell numbers | minimally affected | minimal effect | neither of which was significantly affected | not EGFR inhibition (by ZD) resulted in reduced colony numbers | cell viability ([1]; 1 μM ZD for 48 h): minimal effect; number of viable Panc-1 cells (Panc-1 or Colo-357 cells; ZD, 96 h (Day 4), Panc-1): decreased
4 | Cc1ccc(S(=O)(=O)OCC(=O)Nc2ccc(C(=O)O)c(O)c2)cc1 [S3I-201] |  |  |  | 45 µM | 40 µM |  | minimally affected | progressively decreased |  | reduced colony numbers | viable cell numbers (fluorescent unit, FU) [1]: decreased viable cell numbers; sensitivity of Panc-1 and Colo-357 cells to ZD and Das ([1]; co-treatment with S3I-201, 48 h): increased the sensitivity; IC50 (Colo-357 cells; COLO357, 48 h, read-out: IC50 of S3I-201 on Colo-357 cells): 20 µM; IC50 (Panc-1 cells; PANC-1, 48 h, read-out: IC50 of S3I-201 on Panc-1 cells): 15 µM
5 | Cc1nc(Nc2ncc(C(=O)Nc3c(C)cccc3Cl)s2)cc(N2CCN(CCO)CC2)n1 [Das, Dasatinib] | rebounded | early repression | inhibited | 0.09 µM | 0.1 µM | decreased viable cell numbers | minimally affected | progressively decreased | neither of which was significantly affected | reduced colony numbers | sensitivity of both cell lines to S3I-201 ([1]; co-treatment with Das or ZD, 48 h): increased the sensitivity; IC50 (Colo-357 cells; COLO357, read-out: IC50 of Das against Colo-357 viability, concurrent treatment with S3I-201, 48-h treatment): 0.008 µM; IC50 (Panc-1 cells; PANC-1, read-out: IC50 of Das against Panc-1 viability, concurrent treatment with S3I-201, 48-h treatment): 0.006 µM
6 | N#C/C(=C\c1ccc(O)c(O)c1)C(=O)NCc1ccccc1 [AG490, Tyrphostin AG490] | abolished | no effect |  |  |  |  |  |  |  |  | 
